ChEMBL document CHEMBL4819141, “Ruthenium(II)- and Palladium(II)-catalyzed position-divergent CH oxygenations of arylated quinones: Identification of hydroxylated quinonoid compounds with potent trypanocidal activity” (Bioorg Med Chem, 2021)
pIC50: −log10 of the molar value.

These compounds were tested on Trypanosoma cruzi (assay: (§1) Trypanocidal activity against Trypanosoma cruzi Y strain bloodstream trypomastigotes isolated from infected in Albino Swiss mouse assessed as lysis of parasite in presence of 5 % mouse blood incubated for 24 hrs by Neubauer chamber method).
Format: functional, organism-based

Row | SMILES | pIC50
1 | O=C1C=C(c2ccccc2)C(=O)c2ccccc21 | 4.01
2 | O=C1C(c2ccccc2)=CC(=O)c2c(O)cccc21 | 3.94
3 | Cc1ccc(C2=CC(=O)c3ccccc3C2=O)cc1 | 3.73
4 | O=C1C=C(c2ccc(F)cc2)C(=O)c2ccccc21 | < 3.30
5 | O=C1C=C(c2ccc(Cl)cc2)C(=O)c2ccccc21 | < 3.00
6 | O=C1C=C(c2ccc(C(F)(F)F)cc2)C(=O)c2ccccc21 | 3.47
7 | Cc1cc(C)cc(C2=CC(=O)c3ccccc3C2=O)c1 | < 3.30
8 | O=C1C(c2cccc(I)c2)=CC(=O)c2c(O)cccc21 | 4.45
9 | O=C1C=C(c2ccccc2O)C(=O)c2ccccc21 | 3.79
10 | O=C1C=C(c2ccc(I)cc2)C(=O)c2ccccc21 | < 3.30
11 | O=C1C=C(c2ccccc2F)C(=O)c2ccccc21 | 3.80
12 | O=C1C(c2ccc(F)cc2)=CC(=O)c2c(O)cccc21 | 4.15
13 | Cc1ccc(C2=CC(=O)c3ccccc3C2=O)c(O)c1 | 4.14
14 | O=C1C(c2ccc(Cl)cc2)=CC(=O)c2c(O)cccc21 | < 3.00
15 | Cc1cccc(C2=CC(=O)c3c(O)cccc3C2=O)c1 | 4.02
16 | Cc1cccc(C2=CC(=O)c3ccccc3C2=O)c1 | 3.98
17 | O=C1C(c2ccc(C(F)(F)F)cc2)=CC(=O)c2c(O)cccc21 | 4.64
18 | COc1ccc(C2=CC(=O)c3ccccc3C2=O)cc1 | 3.52
19 | Cc1cc(C)cc(C2=CC(=O)c3c(O)cccc3C2=O)c1 | < 3.30
20 | O=C1C(c2ccc(I)cc2)=CC(=O)c2c(O)cccc21 | < 3.30
21 | Cc1ccc(C2=CC(=O)c3c(O)cccc3C2=O)cc1 | 3.81
22 | Cc1ccc(C)c(C2=CC(=O)c3ccccc3C2=O)c1 | 4.25
23 | Cc1ccc(O)c(C2=CC(=O)c3ccccc3C2=O)c1 | 4.00
24 | CC(C)(C)c1ccc(C2=CC(=O)c3ccccc3C2=O)cc1 | 4.59
25 | O=C1C=C(c2cccc(I)c2)C(=O)c2ccccc21 | 3.52

These compounds were tested on Trypanosoma cruzi (assay: as §1, with “Potency index, ratio of benznidazole IC50 to test compound IC50 for trypanocidal” for “Trypanocidal”).
Format: functional

Row | SMILES | Ratio IC50
26 | Cc1ccc(C2=CC(=O)c3ccccc3C2=O)c(O)c1 | 2.5
27 | O=C1C(c2ccc(C(F)(F)F)cc2)=CC(=O)c2c(O)cccc21 | 4.5
28 | Cc1ccc(C)c(C2=CC(=O)c3ccccc3C2=O)c1 | 2
29 | CC(C)(C)c1ccc(C2=CC(=O)c3ccccc3C2=O)cc1 | 4
